Test results reported in the OligoGym collection.
HELM strings list units from the 5' end as sugar, base in round brackets, then linkage (d deoxyribose, r ribose, m 2'-O-methyl, p phosphodiester). Strings are as the collection lists them; they lack the last nucleoside at the 3' end of the tested compound. [moe] = 2'-O-(2-methoxyethyl) (MOE); [sp] = phosphorothioate linkage; [m5C] = 5-methylcytosine

Target: SOD1
Assay: mouse, dose not given
Conditions: ASO

Row | Substance | 3 h FOB score [score 0-7]
1 | RNA1{[moe]([m5C])[sp].[moe](A)p.[moe](G)[sp].[moe](G)p.[moe](A)[sp].d(T)[sp].d(A)[sp].d([m5C])[sp].d(A)[sp].d(T)[sp].d(T)[sp].d(T)[sp].d([m5C])[sp].d(T)[sp].d(A)[sp].[moe]([m5C])p.[moe](A)[sp].[moe](G)p.[moe]([m5C])}$$$$ (last 3' nucleoside missing) | 1.25
2 | RNA1{[moe]([m5C])[sp].[moe]([m5C])[sp].[moe](G)[sp].[moe](T)[sp].[moe]([m5C])[sp].d(G)[sp].d([m5C])[sp].d([m5C])[sp].d([m5C])[sp].d(T)[sp].d(T)[sp].d([m5C])[sp].d(A)[sp].d(G)[sp].d([m5C])[sp].[moe](A)[sp].[moe]([m5C])[sp].[moe](G)[sp].[moe]([m5C])}$$$$ (last 3' nucleoside missing) | 6.5
